Laboratory results taken from patent US9289437B2, “Method for preparation of a controlled release system” (Cristal Delivery B.V., priority 2008, dated 2016).

Conditions: 6 hours after intravenous administration, B16F10 tumor-bearing mice

fraction still residing in the blood stream: 0.3%
SMILES: C[C@@H]1C[C@H]2[C@@H]3CCC4=CC(=O)C=C[C@]4(C)[C@@]3(F)[C@@H](O)C[C@]2(C)[C@@]1(O)C(=O)CO [free dexamethasone, dexamethasone]
